The results in this text go back to ChEMBL document CHEMBL3045810, “Synthesis and evaluation of 4-(substituted)-acetylamino-3-mercapto-5-(4-substituted) phenyl-1,2,4-triazole derivatives as antimicrobial agents” (2012).

Structures are written as SMILES. The source made the active and inactive calls. No cut-off for these calls is given here.

Test [1] concerns Staphylococcus aureus. As to the kind of experiment: Antibacterial activity against Staphylococcus aureus ATCC 25923 at 70 ug/ml after 24 hr by paper disk diffusion method. It counts as functional. The conditions noted are these: ATCC 25923, 24 h, read-out: DIZ. Background: In agar diffusion tests the substance spreads into inoculated agar from a disc or well.
Test [2] has as its system Candida albicans. Kind of test: Fungicidal activity against Candida albicans MTCC 227. It counts as functional, organism-based.
In test [3] the test system is Candida albicans. As to the kind of experiment: Antifungal activity against Candida albicans MTCC 227 at 70 ug/ml by paper disk diffusion method. Format: functional. As to conditions: read-out: DIZ.
In test [4] the test system is Escherichia coli. As to the kind of experiment: Bactericidal activity against Escherichia coli ATCC 8793. Format: functional, organism-based.
The test system of test [5] is Staphylococcus aureus. As to the kind of experiment: Bactericidal activity against Staphylococcus aureus ATCC 25923. It counts as functional, organism-based.
Test [6] concerns Staphylococcus aureus. As to the kind of experiment: Antibacterial activity against Staphylococcus aureus ATCC 25923 at 50 ug/ml after 24 hr by paper disk diffusion method. As to conditions: ATCC 25923, 24 h, read-out: DIZ. It counts as functional.
Test [7] has as its system Fusarium oxysporum. As to the kind of experiment: Antifungal activity against Fusarium oxysporum MTCC 2087 at 50 ug/ml by paper disk diffusion method. It counts as functional. As to conditions: read-out: DIZ.
Test [8] concerns Aspergillus niger. Kind of test: Fungicidal activity against Aspergillus niger MTCC 3323. It counts as functional, organism-based.
Test [9] deals with Candida albicans. Kind of test: Antifungal activity against Candida albicans MTCC 227 at 50 ug/ml by paper disk diffusion method. As to conditions: read-out: DIZ. It counts as functional.
For test [10], the system named is Pseudomonas aeruginosa. Kind of test: Antibacterial activity against Pseudomonas aeruginosa ATCC 27853 at 30 ug/ml after 24 hr by paper disk diffusion method. Format: functional. As to conditions: ATCC 27853, 24 h, read-out: DIZ.
Test [11] has as its system Pseudomonas aeruginosa. As to the kind of experiment: Antibacterial activity against Pseudomonas aeruginosa ATCC 27853 at 50 ug/ml after 24 hr by paper disk diffusion method. It counts as functional. The conditions noted are these: ATCC 27853, 24 h, read-out: DIZ.
In test [12] the test system is Candida albicans. Kind of test: Antifungal activity against Candida albicans MTCC 227 at 30 ug/ml by paper disk diffusion method. It counts as functional. As to conditions: read-out: DIZ.
Test [13] concerns Bacillus subtilis. Kind of test: Antibacterial activity against Bacillus subtilis ATCC 6633 at 70 ug/ml after 24 hr by paper disk diffusion method. It counts as functional. As to conditions: ATCC 6633, 24 h, read-out: DIZ.
Test [14] deals with Staphylococcus aureus. As to the kind of experiment: Antibacterial activity against Staphylococcus aureus ATCC 25923 at 30 ug/ml after 24 hr by paper disk diffusion method. Format: functional. The conditions noted are these: ATCC 25923, 24 h, read-out: DIZ.
Test [15] relates to Fusarium oxysporum. As to the kind of experiment: Antifungal activity against Fusarium oxysporum MTCC 2087 at 30 ug/ml by paper disk diffusion method. It counts as functional. As to conditions: read-out: DIZ.
Test [16] deals with Escherichia coli. Kind of test: Antibacterial activity against Escherichia coli ATCC 8793 at 30 ug/ml after 24 hr by paper disk diffusion method. As to conditions: ATCC 8793, 24 h, read-out: DIZ. Format: functional.
The test system of test [17] is Fusarium oxysporum. Kind of test: Fungicidal activity against Fusarium oxysporum MTCC 2087. It counts as functional, organism-based.
The test system of test [18] is Bacillus subtilis. Kind of test: Bactericidal against Bacillus subtilis ATCC 6633. Format: functional, organism-based.
The subject of test [19] is Fusarium oxysporum. As to the kind of experiment: Antifungal activity against Fusarium oxysporum MTCC 2087 at 70 ug/ml by paper disk diffusion method. It counts as functional. As to conditions: read-out: DIZ.
Test [20] deals with Escherichia coli. Kind of test: Antibacterial activity against Escherichia coli ATCC 8793 at 50 ug/ml after 24 hr by paper disk diffusion method. It counts as functional. The conditions noted are these: ATCC 8793, 24 h, read-out: DIZ.
For test [21], the system named is Escherichia coli. As to the kind of experiment: Antibacterial activity against Escherichia coli ATCC 8793 at 70 ug/ml after 24 hr by paper disk diffusion method. Format: functional. As to conditions: ATCC 8793, 24 h, read-out: DIZ.
For test [22], the system named is Bacillus subtilis. Kind of test: Antibacterial activity against Bacillus subtilis ATCC 6633 at 30 ug/ml after 24 hr by paper disk diffusion method. As to conditions: ATCC 6633, 24 h, read-out: DIZ. Format: functional.
In test [23] the test system is Aspergillus niger. As to the kind of experiment: Antifungal activity against Aspergillus niger MTCC 3323 at 50 ug/ml by paper disk diffusion method. Format: functional. The conditions noted are these: read-out: DIZ.
The subject of test [24] is Bacillus subtilis. As to the kind of experiment: Antibacterial activity against Bacillus subtilis ATCC 6633 at 50 ug/ml after 24 hr by paper disk diffusion method. Format: functional. The conditions noted are these: ATCC 6633, 24 h, read-out: DIZ.
Test [25] has as its system Pseudomonas aeruginosa. Kind of test: Antibacterial activity against Pseudomonas aeruginosa ATCC 27853 at 70 ug/ml after 24 hr by paper disk diffusion method. Format: functional. The conditions noted are these: ATCC 27853, 24 h, read-out: DIZ.
Test [26] concerns Aspergillus niger. Kind of test: Antifungal activity against Aspergillus niger MTCC 3323 at 70 ug/ml by paper disk diffusion method. Format: functional. The conditions noted are these: read-out: DIZ.
Test [27] has as its system Aspergillus niger. As to the kind of experiment: Antifungal activity against Aspergillus niger MTCC 3323 at 30 ug/ml by paper disk diffusion method. It counts as functional. As to conditions: read-out: DIZ.
Test [28] has as its system Pseudomonas aeruginosa. Kind of test: Bactericidal activity against Pseudomonas aeruginosa ATCC 27853. It counts as functional, organism-based.

For the molecule `CCCN(CCC)CC(=O)Nn1c(S)nnc1-c1ccc(C)cc1`, the zone of inhibition at 70 µg/mL in the test with Staphylococcus aureus [1] stood at 10 mm; with Candida albicans [3], 11.3 mm; in the test on Bacillus subtilis [13], 10.1 mm; in the test on Fusarium oxysporum [19], 9.96 mm; in the test with Escherichia coli [21], 11.1 mm; in the test with Pseudomonas aeruginosa [25], 11.1 mm. Moreover, the zone of inhibition at 70 µg/mL in the test on Aspergillus niger [26] is 14.4 mm. Moreover, the result in the test with Candida albicans [2], in the test on Escherichia coli [4], in the test on Staphylococcus aureus [5], with Aspergillus niger [8], with Fusarium oxysporum [17] and in the test with Bacillus subtilis [18] was Active. The result with Pseudomonas aeruginosa [28] was Active. Also, the zone of inhibition at 50 µg/mL is 9.33 mm in the test on Staphylococcus aureus [6]; 8.4 mm in the test with Fusarium oxysporum [7]; 10.5 mm in the test with Candida albicans [9]; 10.2 mm in the test on Pseudomonas aeruginosa [11]; 10.3 mm with Escherichia coli [20]; 12.3 mm in the test on Aspergillus niger [23]. Moreover, the zone of inhibition at 50 µg/mL in the test on Bacillus subtilis [24] stood at 9.86 mm. Moreover, the zone of inhibition at 30 µg/mL with Pseudomonas aeruginosa [10] worked out at 9.56 mm; with Candida albicans [12], 9.13 mm; in the test on Staphylococcus aureus [14] it was 8.2 mm; in the test on Fusarium oxysporum [15], 7.26 mm; in the test with Escherichia coli [16], 9.33 mm; with Bacillus subtilis [22], 8.93 mm. The zone of inhibition at 30 µg/mL in the test with Aspergillus niger [27] amounted to 11.2 mm.
As to `CN[C@H](CC(C)C)C(=O)N[C@H]1C(=O)N[C@@H](CC(N)=O)C(=O)N[C@H]2C(=O)N[C@H]3C(=O)N[C@H](C(=O)N[C@H](C(=O)O)c4cc(O)cc(O)c4-c4cc3ccc4O)[C@H](O)c3ccc(c(Cl)c3)Oc3cc2cc(c3O[C@@H]2O[C@H](CO)[C@@H](O)[C@H](O)[C@H]2O[C@H]2C[C@](C)(N)[C@H](O)[C@H](C)O2)Oc2ccc(cc2Cl)[C@H]1O` [VANCOMYCIN], the zone of inhibition at 30 µg/mL in the test with Staphylococcus aureus [14] worked out at 18.2 mm; in the test on Bacillus subtilis [22] it was 17.4 mm.
With `Clc1ccccc1C(c1ccccc1)(c1ccccc1)n1ccnc1` [CLOTRIMAZOLE], the zone of inhibition at 30 µg/mL was determined as 21.9 mm in the test with Candida albicans [12], 19.3 mm in the test with Fusarium oxysporum [15] and 22.6 mm in the test with Aspergillus niger [27].
As to `CCCCN(C)CC(=O)Nn1c(S)nnc1-c1ccc(C)cc1`, the zone of inhibition at 70 µg/mL in the test on Staphylococcus aureus [1] came to 9.26 mm; in the test on Candida albicans [3] it was 10.1 mm; in the test on Bacillus subtilis [13], 9.23 mm; with Fusarium oxysporum [19], 8.13 mm; in the test with Escherichia coli [21], 9.2 mm; in the test with Pseudomonas aeruginosa [25], 10.3 mm. In the test on Aspergillus niger [26], the zone of inhibition at 70 µg/mL is 9.17 mm. Moreover, the zone of inhibition at 50 µg/mL in the test with Staphylococcus aureus [6] was 8.23 mm; with Fusarium oxysporum [7], 7.2 mm; in the test on Candida albicans [9], 9.23 mm; in the test on Pseudomonas aeruginosa [11] it was 9.33 mm; in the test with Escherichia coli [20], 8.56 mm; in the test on Aspergillus niger [23] it was 8.26 mm. Also, the zone of inhibition at 50 µg/mL in the test with Bacillus subtilis [24] worked out at 8.2 mm. Besides, the zone of inhibition at 30 µg/mL in the test on Pseudomonas aeruginosa [10] was 8.2 mm; in the test with Candida albicans [12], 8.16 mm; in the test with Staphylococcus aureus [14], 7.4 mm; with Fusarium oxysporum [15], 6.03 mm; with Escherichia coli [16] it was 7.26 mm; with Bacillus subtilis [22], 7.43 mm. In addition, in the test with Aspergillus niger [27], the zone of inhibition at 30 µg/mL worked out at 7 mm.
Take `NCC[C@H](O)C(=O)N[C@@H]1C[C@H](N)[C@@H](O[C@H]2O[C@H](CN)[C@@H](O)[C@H](O)[C@H]2O)[C@H](O)[C@H]1O[C@H]1O[C@H](CO)[C@@H](O)[C@H](N)[C@H]1O` [AMIKACIN]: the figures for the zone of inhibition at 30 µg/mL in the test on Pseudomonas aeruginosa [10] and in the test on Escherichia coli [16] were 22.1 mm and 21.3 mm, respectively.
